Here are results for two compounds from patent US6448265B1, “Pyrazoles and pyrazolopyrimidines having CRF antagonistic activity” (Pfizer, Inc., priority 1992, dated 2002).

`COc1ccccc1C(=O)c1c(SC)nn(-c2c(Cl)cc(Cl)cc2Cl)c1N` [Example 3, 5-Amino-4-(2-methoxybenzoyl)-3-methylthio-1-(2,4,6-trichlorophenyl)pyrazole]: the melting point lay in the range of 200 to 202 °C. Turning to `Cc1nn(-c2c(Cl)cc(Cl)cc2Cl)c(N)c1C(=O)c1ccccc1Cl` [Example 4, 5-Amino-4-(2-chlorobenzoyl)-3-methyl-1-(2,4,6-trichlorophenyl) pyrazole], the melting point is 222 °C.
